Reference: patent US12274775B2, “Fatty acid esters as anti-Malassezia agents” (SYMRISE AG, priority 2019, dated 2025)
In brackets after ≈: the same amount, converted by molar mass. Where two headings read alike, the source gives them in different places.

Experiments:
Assay in all cases: Agar dilution test on mDixon agar, minimal inhibitory concentration (MIC)
Type in all cases: cell-based
M. furfur = conditions: for MIC: Malassezia furfur
Description: (§1) The fatty acid esters and their mixtures were tested for growth inhibition against Malassezia. The following reference strains were included:
(§2) Tests were performed on solid media using agar dilution tests. Stock solutions of test substances were prepared in mDixon-Agar (cf. Table 2). Lower test concentrations were obtained by diluting stock solutions with fresh agar.
(§3) Preparation of liquid agar was carried out in temperated water bath. Required amounts of test substances were weighed in 130 ml of Dixon Agar and mixed with fresh Dixon-Agar to reach desired concentrations of test substances. Agar solutions with test substances were then poured into 24 well-plates. The pH value in all assays was maintained at 5.5. Preparation of test substances was done on weight per volume base. All results are expressed in parts per million (1 ppm=0.0001%).
(§4) Briefly, Malassezia strains were cultivated on selective agar for pathogenic fungi (Merck) and overlaid with a thin layer of cold-sterilized olive oil. […] Incubation was carried out at 32° C. over a maximal duration of 14 days with regular inspection and documentation of growth status. Minimal inhibitory concentrations (MICs) were determined as the lowest concentrations of test compound without visible growth. Each experiment was repeated to confirm results.

M. globosa = conditions: for MIC: Malassezia globosa
Description: as §1, §2, §3, §4

M. pachydermatis = conditions: for MIC: Malassezia pachydermatis
Description: as §1, §2, §3, §4

M. restricta = conditions: for MIC: 336 h
Description: as §1, §2, §3, §4

M. sympodialis = conditions: for MIC: 336 h
Description: as §1, §2, §3, §4

[1] = CBS1878, 336 h, M. furfur CBS 1878, agar dilution, pH 5.5, 32° C., up to 14 days, read-out: Minimal inhibitory concentration (MIC)
[2] = CBS7019, 336 h, M. furfur CBS 7019, agar dilution, pH 5.5, 32° C., up to 14 days, read-out: Minimal inhibitory concentration (MIC)
[3] = 336 h, M. globosa PM1, agar dilution, pH 5.5, 32° C., up to 14 days, read-out: Minimal inhibitory concentration (MIC)
[4] = CBS7966, 336 h, M. globosa CBS 7966, agar dilution, pH 5.5, 32° C., up to 14 days, read-out: Minimal inhibitory concentration (MIC)
[5] = 336 h, M. pachydermatis 1892, agar dilution, pH 5.5, 32° C., up to 14 days, read-out: Minimal inhibitory concentration (MIC)
[6] = CBS1879, 336 h, M. pachydermatis CBS 1879, agar dilution, pH 5.5, 32° C., up to 14 days, read-out: Minimal inhibitory concentration (MIC)
[7] = M. restricta CBS 7877, agar dilution, pH 5.5, 32° C., up to 14 days, read-out: Minimal inhibitory concentration (MIC)
[8] = pH 5.5, M. sympodialis ATCC 42132, pH 5.5, 32° C., up to 14 days, read-out: Minimal inhibitory concentration (MIC)
[9] = pH 5.5, M. sympodialis CBS 7222, pH 5.5, 32° C., up to 14 days, read-out: Minimal inhibitory concentration (MIC)
[10] = pH 5.5, M. sympodialis CBS 7979, pH 5.5, 32° C., up to 14 days, read-out: Minimal inhibitory concentration (MIC)
[11] = pH 5.5, M. sympodialis DSM 6171, pH 5.5, 32° C., up to 14 days, read-out: Minimal inhibitory concentration (MIC)
[12] = CBS7705, 336 h, M. globosa CBS 7705, agar dilution, pH 5.5, 32° C., up to 14 days, read-out: Minimal inhibitory concentration (MIC)
[13] = M. furfur CBS 1878, agar dilution, pH 5.5, 32° C., up to 14 days
[14] = M. furfur CBS 7019, agar dilution, pH 5.5, 32° C., up to 14 days
[15] = M. globosa CBS 7966, agar dilution, pH 5.5, 32° C., up to 14 days
[16] = M. globosa PM1, agar dilution, pH 5.5, 32° C., up to 14 days
[17] = M. pachydermatis 1892, agar dilution, pH 5.5, 32° C., up to 14 days
[18] = M. pachydermatis CBS 1879, agar dilution, pH 5.5, 32° C., up to 14 days
[19] = M. restricta CBS 7877, agar dilution, pH 5.5, 32° C., up to 14 days
[20] = 336 h, pH 5.5, read-out: Minimal inhibitory concentration (MIC)

Compound | MIC (M. furfur; [1]) [µg/mL] | MIC (M. furfur; [2]) [µg/mL] | MIC (M. globosa; [3]) [µg/mL] | MIC (M. globosa; [4]) [µg/mL] | MIC (M. pachydermatis; [5]) [µg/mL] | MIC (M. pachydermatis; [6]) [µg/mL] | MIC (M. restricta; [7]) [µg/mL] | MIC (M. sympodialis; [8]) [µg/mL] | MIC (M. sympodialis; [9]) [µg/mL] | MIC (M. sympodialis; [10]) [µg/mL] | MIC (M. sympodialis; [11]) [µg/mL] | MIC (M. globosa; [12]) [µg/mL] | Minimal inhibitory concentration (MIC) (M. furfur; [13]) [ppm] | Minimal inhibitory concentration (MIC) (M. furfur; [14]) [ppm] | Minimal inhibitory concentration (MIC) (M. globosa; [15]) [ppm] | Minimal inhibitory concentration (MIC) (M. globosa; [16]) [ppm] | Minimal inhibitory concentration (MIC) (M. pachydermatis; [17]) [ppm] | Minimal inhibitory concentration (MIC) (M. pachydermatis; [18]) [ppm] | Minimal inhibitory concentration (MIC) (M. restricta; [19]) [ppm] | other results
CCCCCCCC(=O)O [Caprylic acid, caprylic acid] | 1000 (≈ 6.93 mM) | 2000 (≈ 13.9 mM) | 500 (≈ 3.47 mM) | 1000 (≈ 6.93 mM) | 200 (≈ 1.39 mM) | 100 (≈ 0.693 mM) | 200 (≈ 1.39 mM) | 330 (≈ 2.29 mM) | 330 (≈ 2.29 mM) | 1000 (≈ 6.93 mM) | 500 (≈ 3.47 mM) |  |  |  |  |  |  |  |  | 
CCCCCCCC(=O)OCC [Ethyl caprylate] | > 20000 | 10000 (≈ 58 mM) | 1000 (≈ 5.8 mM) | 1000 (≈ 5.8 mM) | 1000 (≈ 5.8 mM) | < 500 | 4000 (≈ 23.2 mM) | 1000 (≈ 5.8 mM) | 1000 (≈ 5.8 mM) | 1000 (≈ 5.8 mM) | 1000 (≈ 5.8 mM) |  |  |  |  |  |  |  |  | 
C=CCCCCCCCCC(=O)OCC [Ethyl undecylenoate] | 20000 (≈ 94.2 mM) | > 20000 | 8000 (≈ 37.7 mM) | 10000 (≈ 47.1 mM) | 500 (≈ 2.35 mM) | 2000 (≈ 9.42 mM) | 1000 (≈ 4.71 mM) | 200 (≈ 0.942 mM) | 200 (≈ 0.942 mM) | 200 (≈ 0.942 mM) | 200 (≈ 0.942 mM) | 4000 (≈ 18.8 mM) |  |  |  |  |  |  |  | 
CCCCCCCC(=O)OCC(O)CO (stereo not drawn) [Glyceryl monocaprylate] | 4000 (≈ 18.3 mM) | 4000 (≈ 18.3 mM) | 500 to 1000 (≈ 2.29 to 4.58 mM) | 1000 (≈ 4.58 mM) | 500 (≈ 2.29 mM) | 330 (≈ 1.51 mM) | 330 (≈ 1.51 mM) | 1000 (≈ 4.58 mM) | 1000 (≈ 4.58 mM) | 1000 (≈ 4.58 mM) | 2000 (≈ 9.16 mM) | 1000 (≈ 4.58 mM) |  |  |  |  |  |  |  | 
C=CCCCCCCCCC(=O)OCC(O)CO (stereo not drawn) [Glyceryl monoundecylenoate] | 8000 (≈ 31 mM) | 8000 (≈ 31 mM) | 2000 (≈ 7.74 mM) | 2000 (≈ 7.74 mM) | 4000 (≈ 15.5 mM) | 8000 (≈ 31 mM) | 1000 (≈ 3.87 mM) | 500 (≈ 1.94 mM) | 500 (≈ 1.94 mM) | 500 (≈ 1.94 mM) | 200 (≈ 0.774 mM) | 1000 (≈ 3.87 mM) |  |  |  |  |  |  |  | 
C=CCCCCCCCCC(=O)OCC(COC(=O)CCCCCCCCC=C)OC(=O)CCCCCCCCC=C [Glyceryl triundecylenoate] |  |  |  |  |  |  |  |  |  |  |  |  | 10000 | >20000 | >20000 | 8000 | 4000 | 4000 | 4000 | Minimal inhibitory concentration (MIC) (M. globosa; M. globosa CBS 7705, agar dilution, pH 5.5, 32° C., up to 14 days): 8000 ppm
C=CCCCCCCCCC(=O)O [Undecylenic acid, 10-undecylenic acid] |  |  |  |  |  |  |  |  |  |  |  |  |  |  |  |  |  |  |  | MIC (M. furfur; CBS1878, 336 h, pH 5.5, read-out: Minimal inhibitory concentration (MIC)): 2000 µg/mL (≈ 10.9 mM); MIC (M. furfur; CBS7019, 336 h, pH 5.5, read-out: Minimal inhibitory concentration (MIC)): > 2000 µg/mL; MIC (M. globosa; [20]): 677 µg/mL (≈ 3.67 mM); MIC (M. globosa; CBS7705, 336 h, pH 5.5, read-out: Minimal inhibitory concentration (MIC)): 330 µg/mL (≈ 1.79 mM); MIC (M. globosa; CBS7966, 336 h, pH 5.5, read-out: Minimal inhibitory concentration (MIC)): 2000 µg/mL (≈ 10.9 mM); MIC (M. pachydermatis; [20]): 500 µg/mL (≈ 2.71 mM); MIC (M. pachydermatis; CBS1879, 336 h, pH 5.5, read-out: Minimal inhibitory concentration (MIC)): 1000 µg/mL (≈ 5.43 mM); MIC (M. restricta; pH 5.5, read-out: Minimal inhibitory concentration (MIC)): 500 µg/mL (≈ 2.71 mM); MIC (M. sympodialis; pH 5.5, read-out: Minimal inhibitory concentration (MIC), M. sympodialis ATCC 42132, pH 5.5, 32° C., up to 14 days): 100 µg/mL (≈ 0.543 mM); MIC (M. sympodialis; pH 5.5, read-out: Minimal inhibitory concentration (MIC), M. sympodialis CBS 7222, pH 5.5, 32° C., up to 14 days): 100 µg/mL (≈ 0.543 mM); MIC (M. sympodialis; pH 5.5, read-out: Minimal inhibitory concentration (MIC), M. sympodialis CBS 7979, pH 5.5, 32° C., up to 14 days): 200 µg/mL (≈ 1.09 mM); MIC (M. sympodialis; pH 5.5, read-out: Minimal inhibitory concentration (MIC), M. sympodialis DSM 6171, pH 5.5, 32° C., up to 14 days): 100 µg/mL (≈ 0.543 mM)
PEG9-caprylate |  |  |  |  |  |  |  |  |  |  |  |  | 20000 | 10000 | 2000 | 2000 | 4000 | 2000 | 2000 | Minimal inhibitory concentration (MIC) (M. sympodialis; M. sympodialis ATCC 42132, pH 5.5, 32° C., up to 14 days): 10000 ppm; Minimal inhibitory concentration (MIC) (M. sympodialis; M. sympodialis CBS 7222, pH 5.5, 32° C., up to 14 days): 10000 ppm; Minimal inhibitory concentration (MIC) (M. sympodialis; M. sympodialis CBS 7979, pH 5.5, 32° C., up to 14 days): 8000 ppm; Minimal inhibitory concentration (MIC) (M. sympodialis; M. sympodialis DSM 6171, pH 5.5, 32° C., up to 14 days): 8000 ppm
PEG-9-undecylenoate |  |  |  |  |  |  |  |  |  |  |  |  | 20000 | >20000 | 10000 | 8000 | 8000 | 8000 | 4000 | 
